Measured values reported in patent US20210261857A1, “PARTICLE COMPRISING AT LEAST ONE FERRIMAGNETIC OR FERROMAGNETIC IRON OXIDE NANOPARTICLE ASSOCIATED WITH AT LEAST ONE COMPOUND FOR MEDICAL OR COSMETIC USE” (NANOBACTERIE, priority 2015, published 2021).

Experiments:
Assay type in all cases: physicochemical
[1] = Luminescence of heated DiI and BNF-DiI suspensions and supernate; conditions: excited at 530 nm
Protocol: A suspension of DiI of concentration 5.4 μM and pH 7 is heated at various temperatures lying between 20 and 90° C. for 30 minutes using a dry heating bath. […] When a suspension containing BNF-DiI mixed in water at a concentration of 80 μg/mL in iron oxide is heated at temperatures lying between 20 and 90° C. using a dry heating bath, the behavior is different from that observed with DiI alone.
In order to determine if the luminescence variation of the BNF-DiI is due to the dissociation of DiI from the BNF, the maximum intensity of luminescence of the supernate of BNF-DiI and DiI alone, excited at 530 nm, were measured for suspensions containing BNF-DiI or DiI alone heated at different temperatures between 20 and 90° C. for a period of 0 to 30 minutes.

[2] = Fluorescence lifetime by the frequency method; conditions: excitation 445 nm, MCR400 5 mg/mL in iron oxide, rhodamine B 5 μM
Protocol: Life time experiments were carried out using the frequency method. The set-up uses a modulated laser diode as excitation source, a confocal fluorescence spectroscope, a control unit for intensifying images and a camera, frequency generators and a spectrograph controller. The modulation frequency has been varied between 30 and 180 MHz. The excitation wavelength is 445 nm. The laser light is modulated by a radio frequency signal. An interference filter suppresses parasitic fluorescence from the laser diode and a high pass filter is placed in the detection path to decrease scattering. A volume of 1 mL of a suspension of MCR400 at 5 mg/mL in iron oxide and rhodamine B at a concentration of 5 μM was placed in a dry heating bath for 5 minutes to heat the suspensions at 25° C. and at 45° C. 10 μl of a suspension of MCR400 at 5 mg/ml in iron oxide and rhodamine B at a concentration of 5 μM were deposited on a slide and then placed in front of an objective ×40 to measure the fluorescence lifetime of each suspension.

[3] = Luminescence of heated rhodamine B solution and MCR400 suspension (temperature probe); conditions: temperature increased from 20° C. to 80° C., 5 μM, pH 7, heated 30 minutes, excited at 405 nm
Protocol: A solution of rhodamine B of concentration 5 μM and pH 7 contained in a volume of 800 μL is excited at 405 nm and heated at different temperatures for 30 minutes using a dry heating bath. When the temperature of this solution increases from 20° C. to 80° C., the wavelength corresponding to the maximum luminescence of rhodamine B remains relatively unchanged while the maximum luminescence intensity of rhodamine B decreases strongly by 73% in agreement with previously published results (Journal of Luminescence, Vol. 27, p. 455 (1982)). A suspension of MCR400 at a concentration of 250 μg/mL in iron oxide and pH 7 contained in a volume of 800 μl is excited at 405 nm and heated at different temperatures for 30 minutes using a dry hot-water heating bath. MCR400 excited at 405 nm produce maximum luminescence intensity at 569 nm. The behavior of the MCR400 is different from that of rhodamine B. Indeed, between 20° C. and 80° C., the maximum of the luminescence peak is observed at 569 nm and the luminescence intensity of the MCR400 increases sharply by 66%. The luminescence intensity of rhodamine B would initially be quenched when rhodamine B is associated with magnetosomes and would increase with the dissociation of rhodamine B from magnetosomes under the effect of a temperature increase.

[4] = Luminescence after irradiation with a faxitron irradiator (irradiation probe); conditions: 0 to 1350 Gy, 125 μM rhodamine B, pH 7, 25° C., excited at 550 nm, measured at 578 nm
Protocol: Three suspensions are maintained at pH 7 and at a temperature of 25° C., containing either 400 μg/mL in iron oxide of MCR400, 125 μM of rhodamine B, or 400 μg/mL in iron oxide of MC mixed with 125 μM of rhodamine B. These suspensions are irradiated with a faxitron irradiator dosimeter (160 kV, 6.3 mA without filter, 67.5 Gy/min). The irradiation doses are between 0 and 1350 Gy. […] In contrast, when the MCR400 suspension is irradiated, the luminescence of the supernate of this suspension, excited at 550 nm and measured at 576 nm, increases sharply from 250 a.u. in the absence of irradiation to 600-950 a.u. in the presence of an irradiation larger than 250 Gy.

[5] = Luminescence as a function of pH (pH 2 to 12), suspension, supernate and rhodamine B alone; conditions: 125 μM, excited at 550 nm
Protocol: A suspension of MCR400 at 400 μg/mL in iron oxide and a 125 μM solution of rhodamine B were mixed with solutions of hydrochloric acid or with solutions of sodium hydroxide at concentrations ranging from 0.1 to 12 M to adjust the pH to values between 2 and 12. The samples containing the MCR400 suspensions thus treated are then placed against a magnet of 0.6 T for 12 hours at 4° C. and the supernate of the treated MCR400 suspensions is removed. The maximum luminescence intensity of the supernate of the MCR400 suspension, excited at 550 nm, decreases from 140 a.u. at pH 2 down to 20 a.u. at pH 12. On the other hand, the maximum luminescence intensity of rhodamine B alone, excited at 550 nm, increases from 440 a.u. up to 580 a.u. […] In contrast, for 2<pH<4, the emission wavelengths of rhodamine B alone, MCR400 and the supernate of MCR400, are similar, lying between 580 nm and 584 nm. These behaviors could be explained by the association of rhodamine B with magnetosomes for pH>4 and the dissociation of rhodamine B from magnetosomes for pH<4.

For `CCCCCCCCCCCCCCCCCCN1C(=CC=CC2=[N+](CCCCCCCCCCCCCCCCCC)c3ccccc3C2(C)C)C(C)(C)c2ccccc21.[O-][Cl+3]([O-])([O-])[O-]` [DiI, 1,1′-Dioctadecyl-3,3,3′,3′-tetramethyl-indocarbocyanine perchlorate], the “maximum luminescence intensity as a function of heating temperature” value ([1]; heated 30 minutes, DiI 5.4 μM pH 7, BNF-DiI 80 μg/mL in iron oxide) was “increases between 20 and 60 °C and then decreases between 60 and 100 °C” and the “luminescence intensity of the substance alone on heating” value ([1]; heated between 20 and 90° C. for 0 to 30 minutes) was “does not significantly decrease”.

For `CCN(CC)c1ccc2c(-c3ccccc3C(=O)O)c3ccc(=[N+](CC)CC)cc-3oc2c1.[Cl-]` [rhodamine B], the fluorescence lifetime ([2]; 25° C.) was 1.6 ns, the fluorescence lifetime ([2]; 45° C.) was 1.3 ns and the “decrease of maximum luminescence intensity” value [3] was 73%. For the same compound, the “luminescence on irradiation (solution, or supernate of the mixture)” value [4] was “do not vary or decrease”, the “maximum luminescence intensity of the solution” value ([5]; end of the pH increase (pH range 2 to 12)) was 580 a.u and the “maximum luminescence intensity of the solution” value ([5]; start of the pH increase (pH range 2 to 12)) was 440 a.u.
